pKi: −log10 of the molar value.
How the values were obtained:
Type in all cases: biochemical
[1] = target: T1, wild type HIV-1 protease (Q7K) (Human immunodeficiency virus type 1 group M subtype B, UniProt P04585, Q495K); experiment: FRET HIV-1 protease inhibition assay, wild type; conditions: for fold higher Ki than the corresponding inhibitor with isobutyl group at P1': cyclopropylmethyl at P1' vs isobutyl analog, wild type; for pKi: wild type HIV-1 protease (Q7K), FRET, in triplicate, read-out: Ki
T1 construct: Wide type HIV-1 protease (Q7K)
Experimental: Biological Evaluation of Selected Compounds of the Invention. HIV protease inhibitor activities were determined by fluorescence resonance energy transfer (FRET) method. […] Inhibitor binding dissociation constant (Ki value) was obtained by nonlinear regression fitting to the plot of initial velocity as a function of inhibitor concentration based on Morrison equation.
(§1) The energy transfer donor (EDANS) and acceptor (DABCYL) were labeled at its two ends respectively to perform FRET. Fluorescence measurements were carried out on PTI fluorescence spectrophotometer (Photon Technology International) at 30° C. Excitation and emission wavelengths were set at 340 nm and 490 nm, respectively. Each reaction was recorded for about 10 min. Wide type HIV-1 protease (Q7K) and its MDR mutants M1 (L10I, G48V, I54V, L63P, V82A), M2 (D30N, L63P, N88D), and M3 (L10I, L63P, A71V, G73S, I84V, L90M) were desalted through PD-10 columns (Amersham Biosciences). Sodium Acetate (20 mM, pH 5) was used as elution buffer. Apparent protease concentrations were around 50 nM estimated by UV spectrophotometer (Shimadzu) at 280 nm. All inhibitors were dissolved in DMSO and diluted to appropriate concentrations. Protease (2 μL) and inhibitor (2 μL) or DMSO were mixed and incubated for 20-30 min at room temperature before initialing substrate cleavage reaction. Throughout this work, 150 μL of 1 μM substrate was used. Substrate buffer is composite of 0.1 M sodium acetate, 1 M sodium chloride, 1 mM ethylenediaminetetraacetic acid (EDTA), 1 mM dithiothreitol (DTT), 2% dimethylsulfoxide (DMSO) and 1 mg/mL bovine serum albumin (BSA) with an adjusted pH 4.7. Inhibitor binding dissociation constant (Ki) was obtained by nonlinear regression fitting (GraFit 5, Erithacus software) to the plot of initial velocity as a function of inhibitor concentrations based on Morrison equation.

[2] = target: HIV-1 protease MDR mutant M1 (L10I, G48V, I54V, L63P, V82A) (Human immunodeficiency virus type 1 group M subtype B, UniProt P04585, G536V/I542V/L498I/L551P/Q495K/V570A); conditions: qualitative statement
From the text: (§2) The mutant variants were selected by examining the Stanford HIV-1 Drug Resistance Database (http://hivdb.stanford.edu) of HIV-1 infected-patient sequences of viral isolates. […] (Wu, T. D. et al. J. Virol. 2003, 77, 4836-4847.) These MDR mutant variants are L10I, G48V, I54V, L63P, V82A (M1), D30N, L63P, N88D (M2), and L10I, L63P, A71V, G73S, I84V, L90M (M3).
as §1

[3] = target: HIV-1 protease MDR mutant M3 (L10I, L63P, A71V, G73S, I84V, L90M) (Human immunodeficiency virus type 1 group M subtype B, UniProt P04585, A559V/G561S/I572V/L498I/L551P/L578M/Q495K); conditions: qualitative statement
From the text: as §2, §1

[4] = target: HIV-1 protease MDR mutant M2 (D30N, L63P, N88D) (Human immunodeficiency virus type 1 group M subtype B, UniProt P04585, D518N/L551P/N576D/Q495K); conditions: qualitative statement
From the text: as §2, §1

Row | Structure (SMILES) | fold higher Ki than the corresponding inhibitor with isobutyl group at P1' [1] | pKi [1] | further results
1 | COc1cccc(S(=O)(=O)N(CC2CC2)C[C@@H](O)[C@H](Cc2ccccc2)NC(=O)[C@@H]2CN(c3cccc(F)c3)C(=O)O2)c1 [36b, (5S)—N-[(1S,2R)-1-Benzyl-3-[(cyclopropylmethyl)[(3-methoxyphenyl)sulfonyl]amino]-2-hydroxypropyl]-3-(3-fluorophenyl)-2-oxo-oxazolidine-S-carboxamide] | about 3 fold | 9.59 | 
2 | COc1cccc(S(=O)(=O)N(CC2CC2)C[C@@H](O)[C@H](Cc2ccccc2)NC(=O)[C@@H]2CN(c3ccc(F)c(F)c3)C(=O)O2)c1 [36c, (5S)—N-[(1S,2R)-1-Benzyl-3-[(cyclopropylmethyl)[(3-methoxyphenyl)sulfonyl]amino]-2-hydroxypropyl]-3-(3,4-difluorophenyl)-2-oxo-oxazolidine-S-carboxamide] | ~9 fold | 9.24 | 
3 | COc1cccc(S(=O)(=O)N(CC2CC2)C[C@@H](O)[C@H](Cc2ccccc2)NC(=O)[C@@H]2CN(c3ccc(C(C)=O)cc3)C(=O)O2)c1 [36f, (5S)-3-(4-Acetylphenyl)-N-[(1S,2R)-1-Benzyl-3-[(cyclopropylmethyl)[(3-methoxy-phenyl)sulfonyl]amino]-2-hydroxypropyl]-2-oxo-oxazolidine-S-carboxamide] | ~200 fold | 10.10 | 
4 | Cc1cccc(C)c1OCC(=O)N[C@@H](Cc1ccccc1)[C@@H](O)C[C@H](Cc1ccccc1)NC(=O)[C@H](C(C)C)N1CCCNC1=O [LPV, lopinavir] |  |  | activity against M1 mutant relative to wild type (in words) [2]: significantly loses activity; activity against M3 mutant relative to wild type (in words) [3]: significantly loses activity; activity against M2 mutant relative to wild type (in words) [4]: retains high affinity
5 | CC(C)CN(C[C@@H](O)[C@H](Cc1ccccc1)NC(=O)O[C@H]1CCOC1)S(=O)(=O)c1ccc(N)cc1 [amprenavir, reference compound] |  |  | inhibitory activity against wild type HIV-1 protease (in words) ([1]; wild type HIV-1 protease, qualitative statement): Ki value for wild type is also relatively high

Source: patent US20110178092A1, “HIV-1 Protease Inhibitors” (priority 2005, published 2011)
